# Data from patent US20240417410A1, “TRICYCLIC COMPOUNDS FOR THE TREATMENT OF CANCER” (Hoffmann-La Roche Inc., priority 2023, published 2024).
# Experiments:
# [1] = system: Miapaca-2 KRAS G12C + S65W; test: Stable KRAS mutant cell line viability assay (CellTiter-Glo); format: cell-based; details: Miapaca-2 mutant cells, 3 d
# Excerpt: (§1) The aim of the study was to determine the potency and efficacy of compounds for cell proliferation using CellTiter-Glo® (CTG) Luminescent Cell Viability Assay (Promega Corp., Madison, WI). We cloned 14 KRAS^G12C variant sequences with secondary mutations (V8A, V9Y, S17E, T58I, A59T, S65W, R68S, D69P, M72I, D92R, H95N, Y96D, Q99W and F156L) into the Miapaca-2. Totally 14 stable Miapaca-2 mutant cell lines were established through lentivirus infection. For the cell viability assay, cells were dosed with compounds in a 9-point dose-response using a 4 fold dilution series at a top dose of 10 μM. KRAS mutant cells were maintained in DMEM+10% FBS+2.5% HI Horse serum+1% PS+1 μg/mL Puromycin and seeded into 96-well plates at 800-1,500 cells per well 24 h before compound addition and then incubated with compound for 3 d before assaying viability (CellTiter-Glo, Promega). Assays were performed in biological duplicates. Nonlinear regression curves were fitted using Xfit. IC50 (absolute IC50) is the dose at which the estimated viability is 50% relative to untreated wells.
# [2] = system: Miapaca-2 KRAS G12C + A59T; test: as above; format: cell-based; details: Miapaca-2 mutant cells, 3 d
# Excerpt: as §1
# [3] = system: Miapaca-2 KRAS G12C + Y96D; test: as above; format: cell-based; details: Miapaca-2 mutant cells, 3 d
# Excerpt: as §1
# [4] = system: Miapaca-2 KRAS G12C + S17E; test: as above; format: cell-based; details: Miapaca-2 mutant cells, 3 d
# Excerpt: as §1
# [5] = system: Miapaca-2 KRAS G12C + V8A; test: as above; format: cell-based; details: Miapaca-2 mutant cells, 3 d
# Excerpt: as §1
# [6] = system: Miapaca-2 KRAS G12C + H95N; test: as above; format: cell-based; details: Miapaca-2 mutant cells, 3 d
# Excerpt: as §1
# [7] = system: Miapaca-2 KRAS G12C + Q99W; test: as above; format: cell-based; details: Miapaca-2 mutant cells, 3 d
# Excerpt: as §1
# [8] = biological target: KRAS G12C-BRAF complex (Homo sapiens (Human), UniProt P01116+P62937, G12C); test: KRAS-BRAF with CYPA (500 nM) interaction assay (TR-FRET, Example 136); format: biochemical; details: KRAS G12C-BRAF disruption
# KRAS G12C-BRAF complex, sequence (P01116-2 other isoform, or with tags, fused parts or gaps G12C): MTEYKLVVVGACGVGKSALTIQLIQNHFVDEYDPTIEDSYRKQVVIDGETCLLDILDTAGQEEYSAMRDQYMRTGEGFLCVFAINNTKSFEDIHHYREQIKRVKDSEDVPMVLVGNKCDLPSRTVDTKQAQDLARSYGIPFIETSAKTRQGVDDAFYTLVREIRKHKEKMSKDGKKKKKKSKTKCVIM
# KRAS G12C-BRAF complex, sequence (P62937 whole entry): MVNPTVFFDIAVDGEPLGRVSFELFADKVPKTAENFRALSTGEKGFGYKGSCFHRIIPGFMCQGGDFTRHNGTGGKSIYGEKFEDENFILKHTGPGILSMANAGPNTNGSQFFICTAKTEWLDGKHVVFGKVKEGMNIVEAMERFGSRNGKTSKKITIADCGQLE
# [9] = system: WT NRAS-BRAF complex; test: WT NRAS-BRAF with CYPA interaction assay (TR-FRET); format: biochemical
# Protocol: In this example, TR-FRET was used to measure the compound or compound-CYPA dependent disruption of the KRAS G12V-BRAF complex to assess inhibition efficacy. The IC50 ratio between WT KRAS/HRAS/NRAS and KRAS G12V mutant was calculated as selective index, which indicated tolerability and safety profile. Disruption of WT KRAS/HRAS/NRAS-BRAF complex by compounds was detected respectively. In assay buffer containing 25 mM HEPES (PH-7.4,4-(2-hydroxyethyl)-1-piperazineethanesulfonic acid, Thermo, 15630080), 0.002% Tween20, 0.1% BSA, 100 mM NaCl, 5 mM MgCl2, 10 μM GMPPNP (Guanosine 5′-[β,γ-imido]triphosphate trisodium salt hydrate, Sigma, G0635), tagless CYPA and GMPPNP loaded 6His-RAS proteins, and GST-BRAF^RBD were mixed in a well of a 384-well assay plate at final concentrations of 50 nM, 6.25 nM and 1 nM, respectively. Compound was present in plate wells as a 16-point 3-fold dilution series starting at a final concentration of 10 μM and incubated for 3 hours. A mixture of MAb Anti-6His-XL665 (Cisbio, 61HISXLB) and Mab anti-GST-TB cryptate (Cisbio, 61GSTTLB) was then added at a final concentration of 6.67 nM and 0.21 nM, respectively, and the plate was incubated for an additional 1.5 hours. TR-FRET signal was read on a PHERstar FSX microplate reader (Ex320 nm, Em 665/615 nm). Compounds that facilitate disruption of the RAS-BRAF complex were identified as those eliciting a decrease in the TR-FRET ratio relative to DMSO control wells.
# [10] = system: DUSP6; test: Brain metastasis intracranial model, PD (DUSP6 in brain, qPCR); format: in vivo, mouse; details: 30 mg/kg once daily for 14 days, 6 hours post last dose, NCI-H1373-Luc model
# Protocol: Example 24, formulated in 10% DMSO, 10% Solutol HS15, 80% water, was dosed orally to 7-9 weeks female BALB/c nude mice (Vital River Co., LTD.) in […] at 30 mg/kg (dosing volume of 10 ml/kg) once daily for 14 days. Terminal tissue and blood harvest was performed at 6 hours after post last dose of test articles, using 4 mice per group. In brief, whole blood was collected into K2-EDTA tubes and subjected to centrifugation to separate plasma. Brains were collected, rinsed, and homogenized. Mice Brain were analyzed using qPCR using DUSP6 and ACTB TaqMan probes (ABI-4369016, ABI-4351370). All the targets mRNA expression levels were normalized to the housekeeping gene, and the data were represented as fold-changes according to the 2-ΔΔCt method, where […] and ΔΔCt=ΔCt treatment-ΔCt reference, ΔCt reference was chosen as the vehicle group. The data were interpreted by GraphPad Prism, and statistical analysis of difference in the each targets mRNA expression among the groups were conducted. For comparison between two groups, an independent sample t-test will be used. For comparison among three or more groups, a one-way ANOVA (Dunnett's multiple comparisons test) will be performed, p<0.05 was considered to be statistically significant.
smiles,measurement,setting,value
"CO[C@@H](C)c1ncc(N2CCN(C)CC2)cc1-c1c2c3cc(cc4c3n1CCC4)-c1csc(n1)C[C@H](NC(=O)[C@H]1[C@H](C)[C@@H]1C)C(=O)N1CCC[C@H](N1)C(=O)OCC(C)(C)C2 (atropisomer, axis not shown; (M)) [Example 24, (1r,2R,3S)-N-[(7S,13S)-(20M)-20-[2-[(1S)-1-methoxyethyl]-5-(4-methylpiperazin-1-yl)-3-pyridyl]-17,17-dimethyl-8,14-dioxo-15-oxa-4-thia-9,21,30,31-tetrazahexacyclo[23.3.1.1^2,5.1^9,13.0^19,27.0^21,26]hentriaconta-1 (28),2,5 (31), 19,25 (29),26-hexaen-7-yl]-2,3-dimethyl-cyclopropanecarboxamide]",IC50,[1],1 nM
same,IC50,[2],6 nM
same,IC50,[3],2 nM
same,IC50,[4],3 nM
same,IC50,[5],1 nM
same,IC50,[6],1 nM
same,IC50,[7],5 nM
same,IC50,[8],9.7 nM
same,Selectivity Index (IC50 ratio) WT NRAS/KRAS G12V,[9],5.0
same,MAPK activation (DUSP6) in the brain,[10],significantly decreased
